Results on two compounds are retold here after ChEMBL document CHEMBL3887005, “N-cyclopropyl-N-piperidinyl-amides, pharmaceutical compositions containing them, and uses thereof” (2016).

The structures appear in SMILES notation.

In the test the target is T1, Glucose-dependent insulinotropic receptor (Homo sapiens, UniProt Q8TDV5).
T1 sequence (Q8TDV5 whole entry): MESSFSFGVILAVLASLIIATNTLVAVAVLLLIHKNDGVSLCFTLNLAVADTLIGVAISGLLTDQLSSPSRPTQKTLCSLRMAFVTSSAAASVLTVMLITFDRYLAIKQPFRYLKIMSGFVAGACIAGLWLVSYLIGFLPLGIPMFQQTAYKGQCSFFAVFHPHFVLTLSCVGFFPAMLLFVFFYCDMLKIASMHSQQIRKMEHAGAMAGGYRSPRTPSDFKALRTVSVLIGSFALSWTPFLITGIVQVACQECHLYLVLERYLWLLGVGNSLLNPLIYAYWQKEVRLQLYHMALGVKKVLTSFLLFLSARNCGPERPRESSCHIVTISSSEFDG
In words: AlphaScreen cAMP Assay: MIN6 cells [Miyazaki J et al. Endocrinology. 1990 July; 127(1):126-32] are stably transfected with an expression vector for human GPR119 cDNA (Acc. No. NP_848566). Min-6/hGPR119 cells are cultured in DMEM, 10% FBS, 50 uM β-mercaptoethanol, 0.3 mg/mL Geniticin, 2 mM GlutaMAX at 37° C. 5% CO2. For the assay, the cells are seeded in Optiplates (white, 384-well, 160W-barcoded, TC, sterile with lid, Cat. No. #6007688 (Perkin Elmer); 10000 cells/well; 50 ul). The plates covered with lids are then incubated for 24 hours at 37° C./5% CO2. After the medium is aspirated from the wells completely, 10 ul of the test compound are added, the compounds are diluted using stimulating buffer (140 mM NaCl, 3.6 mM KCl, 0.5 mM NaH2PO4, 0.5 mM MgSO4, 1.5 mM CaCl2, 10 mM Hepes, 5 mM NaHCO3; pH 7.4. 0.5 mM IBMX and 0.1% BSA, the final DMSO concentration is 1%). After 45 minutes incubation at room temperature (approx. 20° C.), the cAMP concentrations are determined using the AlphaScreen cAMP Assay Kit (Cat. No. #6760625R from PerkinElmer). […]. In kind it is functional, cell-based. In general terms: In Alpha technology, singlet oxygen from a donor bead excites a nearby acceptor bead.

Usually EC50 stands for the concentration needed to bring the measured effect to its halfway point. In the case of `CC(C)(C)OC(=O)N1CCC(N(C(=O)c2ccc(-c3ccc(CS(C)(=O)=O)cc3)cc2)C2CC2)CC1`, the EC50 turned out to be 57 nM.

As to `O=C(OC1CCCCC1)N1CCC(N(C(=O)c2ccc(-c3cnco3)cc2)C2CC2)CC1`, the EC50 came to 59 nM.
